Earlier results as cited in patent US11147307B2, “Flavor capsules for smoking articles” (PHILIP MORRIS PRODUCTS S.A., priority 2015, dated 2021).

Compound: OC[C@@H](O)[C@@H](O[C@H]1O[C@H](CO)[C@@H](O)[C@H](O)[C@H]1O)[C@H](O)[C@@H](O)CO [maltitol]
- solubility in water: about 200 g/100 ml
